According to US6087355A, “Cephalosporin antibiotics” (Microcide Pharmaceuticals, Inc., priority 1996, dated 2000):
Converted amounts (≈) assume the structure as drawn.

What was measured:
Test in all cases: In vitro MIC, agar dilution
Format in all cases: cell-based
[1] = tested on: E. faecium ATCC 35667; settings: Enterococcus faecium, ATCC35667, read-out: minimum inhibitory concentration (MIC)
Method in brief: (§1)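 Spots of about 10^4 cfu of log-phase culture were applied, and plates were incubated 16-20 h at 35-36 °C. MIC was the lowest concentration inhibiting growth.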

[2] = tested on: E. faecium VanA(Van^R); settings: Enterococcus faecium, read-out: minimum inhibitory concentration (MIC)
Method in brief: as §1

[3] = tested on: S. aureus PC1(Meth^S)(lac^+); settings: Staphylococcus aureus, read-out: minimum inhibitory concentration (MIC)
Method in brief: as §1

[4] = tested on: S. aureus ATCC 33593(Meth^R); settings: Staphylococcus aureus, ATCC33593, read-out: minimum inhibitory concentration (MIC)
Method in brief: as §1

[5] = tested on: S. aureus 76(Meth^R)(lac^+); settings: Staphylococcus aureus, read-out: minimum inhibitory concentration (MIC)
Method in brief: as §1

[6] = tested on: E. coli ATCC 25992; settings: Escherichia coli, ATCC25992, read-out: minimum inhibitory concentration (MIC)
Method in brief: as §1

[7] = tested on: E. faecalis ATCC 29212; settings: Enterococcus faecalis, ATCC29212, read-out: minimum inhibitory concentration (MIC)
Method in brief: as §1

[8] = tested on: S. haemolyticus 05(Meth^R); settings: Staphylococcus haemolyticus, read-out: minimum inhibitory concentration (MIC)
Method in brief: as §1

C[C@@H](O)[C@H]1C(=O)N2C(C(=O)O)=C(SCCN=CN)C[C@H]12 [Imipenem, imipenem, reference compound]
MIC [1]: 4 µg/mL (≈ 13.4 µM) | MIC [2]: 4 µg/mL (≈ 13.4 µM) | MIC [3]: ≤ 0.25 µg/mL | MIC [4]: 32 µg/mL (≈ 107 µM) | MIC [5]: 32 µg/mL (≈ 107 µM) | MIC [6]: ≤ 0.25 µg/mL | MIC [7]: ≤ 0.25 µg/mL | MIC [8]: 64 µg/mL (≈ 214 µM)
